Measurements reported in article PMC5159279 (Hypertension (Dallas, Tex. : 1979), 2016).

What was measured:
[1] = test system: arterioles from adipose biopsies of patients with hypertension; assay: Human ex vivo vasoreactivity, phenylephrine cumulative dose response; conditions: cumulative dose response without HbαX
[2] = test system: mice with AngII-induced hypertension; assay: Radiotelemetry blood pressure, AngII-induced hypertensive mice; assay type: in vivo; conditions: AngII 1000 ng/kg/min by osmotic mini-pump; from a baseline of 110 mmHg
[3] = test system: hemoglobin in red blood cells; assay: Red blood cell oxygen p50; conditions: fresh human blood; 5 minutes incubation; HbαX 30 μmol/L; n=3

## CNC[C@H](O)c1cccc(O)c1 [phenylephrine]
[1]
  responsiveness of human arterioles to PE: responsive

## Angiotensin II [AngII]
[2]
  systolic blood pressure on AngII: ~ 170 mmHg

## FPYFSTKLTT [control peptide]
[3]
  oxygen p50 of hemoglobin in RBCs: did not significantly change the oxygen p50
